Target: T1, His-GlNMNAT (GlNMNAT, GlNMNAT-A) (Giardia duodenalis, UniProt A8BW22)
T1 sequence (A8BW22 1-227): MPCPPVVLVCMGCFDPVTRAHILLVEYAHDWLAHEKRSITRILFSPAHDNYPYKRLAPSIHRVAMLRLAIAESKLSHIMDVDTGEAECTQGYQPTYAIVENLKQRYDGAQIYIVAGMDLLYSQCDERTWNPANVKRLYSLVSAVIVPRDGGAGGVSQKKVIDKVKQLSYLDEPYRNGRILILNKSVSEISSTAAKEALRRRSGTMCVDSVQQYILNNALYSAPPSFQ
Assay: C18-HPLC of NAAD formation
Assay type: biochemical
Settings: ATP 10 mM; NAMN 0.25-12 mM

O=C([O-])c1ccc[n+]([C@@H]2O[C@H](COP(=O)(O)O)[C@@H](O)[C@H]2O)c1 [NAMN]
C18-HPLC of NAAD formation: for NAMN saturation was not observed, implying that the enzyme has low affinity yet detectable
